According to patent publication US20040106626A1, “6-Membered unsaturated heterocyclic compounds useful for selective inhibition of the coagulation cascade” (Pharmacia Corporation, priority 2001, published 2004):
Several values for one entry are separate records, joined by “and”; a condition that tells them apart may be missing. Equal values may be shown once.

Columns and labels:
[1] = tested on: prothrombin time; assay: Prothrombin time in deep vein thrombosis model; type: in vivo, Macaca fascicularis; conditions: non-human primate, n=4
Procedure: The prothrombin time (PT) assay is a clotting assay that is used to determine deficiencies of clotting factor activity in the extrinsic pathway. The assay measures time to clotting after the addition of thromboplastin (human tissue factor). Normal human pooled plasma is incubated with 100 uM compound or saline in a coagulation machine. Thromboplastin is added and time to clotting is measured. Compounds with greater than 3×normal PT of 11.0 seconds are further analyzed by concentration response to determine at what concentration the prothrombin time is prolonged by 2×normal.
(§1) Non-human primates (Macaca fascicularis) are lightly anesthetized with ketamine to facilitate placement of an endotracheal tube and a femoral venous catheter. Animals are put into and maintained in a deep plane of anesthesia using pentobarbital via the femoral vein cannula. A jugular vein is cannulated for infusion of drug and a carotid artery is cannulated for blood sampling and for monitoring hemodynamic parameters.
The table below depicts the effects of Aspirin coadministered with a compound of the present invention (compounds 54 and 55 are salts of the compound tested) on thrombus formation, prothrombin time and bleeding time in a non-human primate model of deep vein thrombosis.

[2] = tested on: thrombus formation in vena cava; assay: Deep vein thrombosis model, thrombus accumulation on threads in vena cava; type: in vivo, Macaca fascicularis; conditions: non-human primate, n=4
Source text: This model measures the accumulation of thrombus on a set of four threads (4-0 surgical silk) that are introduced into the vena cava of a non-human primate. The device used to introduce the threads consists of a copper wire (12 cm) contained in a sheath of polyethylene tubing (9 cm). Four 4-0 surgical silk threads (3 cm) are tied to the end of the wire and retracted into the tubing. When the device is inserted into the iliac vein, the wire is advanced introducing the threads into the vena cava between the bifurcation and the left renal vein.
as §1
The abdominal cavity is opened and an ultrasonic flow probe placed on the left iliac vein. The right iliac vein (RIV) is dissected free of surrounding tissue for a length of approximately 4 cm. The RIV is ligated approximately 4 cm distal to the bifurcation of the abdominal vena cava and a second ligature is placed, loosely, approximately 2 cm distal to the bifurcation. An incision is made in the RIV between the two ligatures, the device described above introduced into the iliac vein and the threads advanced into the vena cava. Every study consists of three thrombus measurements:
Control—Saline infusion. Threads are introduced and left in for 30 min, removed and thrombus weighed.
Treatment 1—Aspirin administered as a bolus or compound as an infusion. For aspirin treatment, aspirin is administered as a bolus and a 30 min equilibration period is allowed to assure the platelets are inhibited. For compound treatment, infusion is started and allowed to run for 30 min to reach steady-state blood levels of compound. Threads are introduced and left in for 30 min, removed and thrombus weighed;
Treatment 2—Compound administered as an infusion. Compound infusion is started and allowed to run for 30 min to reach steady-state blood levels of compound. Threads are introduced and left in for 30 min, removed and thrombus weighed.
During the 30 min equilibration/infusion periods of Treatment 1 and Treatment 2, a piece of tubing containing a copper wire, but no threads, is introduced into the vein to maintain the integrity of the vessel. After the threads have been in the vessel for 30 min, the entire device is removed from the vessel and the threads are cut from the device and weighed. The weight of the threads prior to insertion in the vessel is subtracted to get the net thrombus weight

[3] = tested on: bleeding time; assay: Bleeding time in deep vein thrombosis model; type: in vivo, Macaca fascicularis; conditions: non-human primate, n=4
Procedure: To measure bleeding time, a blood pressure cuff is placed on the upper arm and inflated to 40 mm Hg. Two uniform cuts are made in the volar surface of the forearm, the blood from the cuts is collected onto a gauze pad every 30 sec. The time from when the cuts are made until the bleeding stops is considered the bleeding time. All gauze used to collect blood is placed in Drabkin's solution and the amount of blood lost from the bleeding time site is calculated based on the amount of hemoglobin measured in the Drabkin's solution.

[4] = biological target: T1, Human factor Xa (Homo sapiens, UniProt P00742); assay: Xa assay (chromogenic substrate S-2765); type: biochemical; conditions: reported only as less than or greater than 30 uM; read-out: Factor Xa (II) IC50
T1 construct: purchased Enzyme Research Laboratories, South Bend Ind
How it was run: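 Chromogenic readout: S-2765 hydrolysis (0.15 mM) by 0.3 nM human FXa was monitored at 405 nm after 60 min at room temperature, with a time-zero background read. Buffer: 50 mM Tris-HCl, pH 8.0, 100 mM NaCl, 0.1% BSA. Inhibition is relative to buffer-only controls.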

[5] = biological target: T2, recombinant soluble tissue factor and recombinant human factor VIIa (TF-VIIa) (Homo sapiens, UniProt P08709); assay: TF-VIIa assay (chromogenic substrate hydrolysis); type: biochemical; conditions: reported only as less than or greater than 0.1 uM
T2 construct: conversion of coagulation factor VII to VIIa by factor Xa; purchased American Diagnostica, Greenwich CT; host or cells: soluble TF made in house in E. coli
How it was run: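 Chromogenic read at OD405, compared with control for percent inhibition. Substrate N-methylsulfonyl-D-phe-gly-arg-p-nitroaniline at 0.4 mM is cleaved by recombinant human VIIa (2 nM) complexed with soluble TF (100 nM). Buffer: pH 8.0 Tris-HCl 50 mM, CaCl2 5 mM, NaCl 100 mM, BSA 0.1%.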

[6] = tested on: Normal human pooled plasma; assay: Prothrombin time (PT) clotting assay; type: biochemical; conditions: concentration at which prothrombin time is prolonged by 2x normal, reported as less than or greater than 50 uM
How it was run: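 Normal human pooled plasma incubated with 100 uM compound or saline, then thromboplastin (human tissue factor) added and clotting time recorded in a coagulation machine. Compounds exceeding 3× normal PT (11.0 s) are titrated to find the concentration doubling PT.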

[7] = biological target: T3, Human thrombin (Homo sapiens, UniProt P00734); assay: Thrombin assay (chromogenic substrate); type: biochemical; conditions: reported only as less than or greater than 30 uM; read-out: Thrombin (II) IC50
T3 construct: converts prothrombin (II) to thrombin (IIa); purchased Calbiochem, La Jolla, Calif
How it was run: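 Percent inhibition derived by comparing OD405 nm of compound-treated and control samples. Thrombin cleavage of a p-nitroanilide chromogenic substrate provides the signal.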

[8] = Aspirin bolus followed by compound infusion 50 μg/kg/min (coadministered)
[9] = Aspirin bolus followed by compound infusion 100 μg/kg/min (coadministered)
[10] = compound infusion 100 μg/kg/min, no aspirin
[11] = compound infusion 200 μg/kg/min, no aspirin

T2 sequence (P08709 213-466 limits assumed): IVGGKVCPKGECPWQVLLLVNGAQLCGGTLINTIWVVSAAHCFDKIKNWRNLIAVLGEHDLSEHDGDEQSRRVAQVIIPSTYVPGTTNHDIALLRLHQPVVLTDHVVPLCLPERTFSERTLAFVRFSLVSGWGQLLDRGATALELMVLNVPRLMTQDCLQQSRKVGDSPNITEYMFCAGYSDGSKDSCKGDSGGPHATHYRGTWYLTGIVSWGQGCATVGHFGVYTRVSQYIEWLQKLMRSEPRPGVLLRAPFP
T2 sequence (P08709 61-212 limits assumed): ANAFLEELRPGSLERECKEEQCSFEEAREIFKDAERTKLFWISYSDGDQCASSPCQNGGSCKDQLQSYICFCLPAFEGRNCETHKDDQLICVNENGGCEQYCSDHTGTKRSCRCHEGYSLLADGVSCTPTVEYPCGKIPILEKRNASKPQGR
T2 sequence (P13726 33-251 partner limits assumed): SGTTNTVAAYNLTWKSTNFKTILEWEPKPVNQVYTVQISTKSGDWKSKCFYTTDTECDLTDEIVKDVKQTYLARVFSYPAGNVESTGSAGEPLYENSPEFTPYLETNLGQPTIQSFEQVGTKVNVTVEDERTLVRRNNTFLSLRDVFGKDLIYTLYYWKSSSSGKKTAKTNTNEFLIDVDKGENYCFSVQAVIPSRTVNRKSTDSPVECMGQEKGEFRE
T1 sequence (P00742 235-488 limits assumed): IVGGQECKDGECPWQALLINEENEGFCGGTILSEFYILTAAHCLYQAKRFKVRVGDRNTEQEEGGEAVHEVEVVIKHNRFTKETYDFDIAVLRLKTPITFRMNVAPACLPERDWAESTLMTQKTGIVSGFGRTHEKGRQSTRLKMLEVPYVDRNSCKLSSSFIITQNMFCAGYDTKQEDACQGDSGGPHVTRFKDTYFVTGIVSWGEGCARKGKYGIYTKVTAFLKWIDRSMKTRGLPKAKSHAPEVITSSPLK
T1 sequence (P00742 41-179 limits assumed): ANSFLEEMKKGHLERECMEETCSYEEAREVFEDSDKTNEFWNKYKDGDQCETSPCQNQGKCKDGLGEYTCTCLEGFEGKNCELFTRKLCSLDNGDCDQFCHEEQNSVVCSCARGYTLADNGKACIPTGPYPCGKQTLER

Compound	IC50 [4] [µM]	IC50 [5] [µM]	PT (Prothrombin time) 2xPT [6] [µM]	IC50 [7] [µM]	other results
CC(C)Nc1ncc(-c2cc(N)cc(O)c2)n(CC(=O)NCc2ccc(C(=N)N)cc2)c1=O [Compounds 54 and 55]	–	–	–	–	Prothrombin Time [1, 8]: 17.3 s; Prothrombin Time [1, 9]: 22.4 s; Prothrombin Time [1, 10]: 22.7 s; Prothrombin Time [1, 11]: 46.0 s; Net Thrombus Wt [2, 8]: 19.5 mg; Thrombus Wt: % Δ from Control [2, 8]: −34%; Net Thrombus Wt [2, 9]: 3.6 mg; Thrombus Wt: % Δ from Control [2, 9]: −89%; Net Thrombus Wt [2, 10]: 15.3 mg; Thrombus Wt: % Δ from Control [2, 10]: −56%; Net Thrombus Wt [2, 11]: 5.1 mg; Thrombus Wt: % Δ from Control [2, 11]: −85%; Bleeding Time [3, 8]: 4.1 min; Bleeding Time [3, 9]: 4.7 min; Bleeding Time [3, 11]: 3.9 min
CC(=O)Oc1ccccc1C(=O)O [Aspirin, reference compound]	–	–	–	–	Prothrombin Time ([1]; Aspirin bolus alone): 11.8 s and 11.5 s; Net Thrombus Wt ([2]; Aspirin bolus alone): 30.9 mg and 26.7 mg; Thrombus Wt: % Δ from Control ([2]; Aspirin bolus alone): −12% and −4%; Bleeding Time ([3]; Aspirin bolus alone): 4.6 min and 4.3 min
CC(C)CCC(=O)Nc1cc(N)cc(-c2cnc(NC(C)C)c(=O)n2CC(=O)NCc2ccc(C(=N)N)cc2)c1.O=C(O)C(F)(F)F.O=C(O)C(F)(F)F [Example 135]	> 30	< 0.1	<50.0	< 30	–
COC(=O)c1ccc(CNC(=O)c2cc(N)cc(-c3cnc(NC(C)C)c(=O)n3CC(=O)NCc3ccc(C(=N)N)cc3)c2)cc1.O=C(O)C(F)(F)F [Example 169]	> 30	< 0.1	<50.0	< 30	–
Cc1cc(N)cc(-c2cnc(NC(C)C)c(=O)n2CC(=O)NCc2ccc(C(=N)N)cc2)c1.Cl.Cl [Example 170]	> 30	< 0.1	<50.0	> 30	–
CC[C@@H](C)NC(=O)c1cc(N)cc(-c2cnc(NC(C)C)c(=O)n2CC(=O)NCc2c(O)cc(C(=N)N)cc2O)c1 [Example 199]	> 30	< 0.1	<50.0	> 30	–
CC(C)Nc1ncc(-c2cc(N)cc(C(=O)N[C@@H](C)c3ccccc3)c2)n(CC(=O)NCc2ccc(C(=N)N)cc2)c1=O [Example 57]	> 30	< 0.1	<50.0	< 30	–
CC(C)Nc1ncc(-c2cc(N)cc(NS(=O)(=O)c3cccs3)c2)n(CC(=O)NCc2ccc(C(=N)N)cc2)c1=O [Example 91]	> 30	< 0.1	<50.0	> 30	–
N=C(N)c1ccc(CNC(=O)Cn2c(-c3cc(N)cc(C(=O)O)c3)cnc(NC3CC3)c2=O)cc1.O=C(O)C(F)(F)F [Example 204, 3-amino-5-[1-[2-({4-[amino(imino)methyl]benzyl}amino)-2-oxoethyl]-5-(cyclopropylamino)-6-oxo-1,6-dihydropyrazin-2-yl]benzoic Acid]	> 30	< 0.1	<50.0	> 30	–
CC(C)Nc1ncc(-c2cc(N)cc(OC3CCCCC3)c2)n(CC(=O)NCc2ccc(C(=N)N)cc2)c1=O.O=C(O)C(F)(F)F.O=C(O)C(F)(F)F [Example 225]	> 30	< 0.1	>50.0	> 30	–
CC(C)COc1cc(N)cc(-c2cnc(NC(C)C)c(=O)n2CC(=O)NCc2ccc(C(=N)N)cc2)c1 [Example 64, N-{4-[amino(imino)methyl]benzyl}-2-[6-(3-amino-5-isobutoxyphenyl)-3-(isopropylamino)-2-oxopyrazin-1 (2H)-yl]acetamide]	> 30	< 0.1	<50.0	> 30	–
N=C(N)c1ccc(CNC(=O)Cn2c(-c3cc(N)cc(O)c3)cnc(NC3CC3)c2=O)cc1.O=C(O)C(F)(F)F.O=C(O)C(F)(F)F [Example 179]	> 30	< 0.1	<50.0	> 30	–
CC(C)Nc1ncc(-c2cc(N)cc(C(=O)NCc3ccc(F)cc3)c2)n(CC(=O)NCc2ccc(C(=N)N)c(O)c2)c1=O.O=C(O)C(F)(F)F [Example 162, 3-amino-5-[1-[2-({4-[amino(imino)methyl]-3-hydroxybenzyl}amino)-2-oxoethyl]-5-(isopropylamino)-6-oxo-1,6-dihydropyrazin-2-yl]-N-(4-fluorobenzyl) benzamide]	> 30	< 0.1	<50.0	> 30	–
CCCC(=O)Nc1cc(N)cc(-c2cnc(NC(C)C)c(=O)n2CC(=O)NCc2ccc(C(=N)N)cc2)c1.O=C(O)C(F)(F)F.O=C(O)C(F)(F)F [Example 130]	> 30	< 0.1	<50.0	< 30	–
